The IC50 is the point on the concentration scale where inhibition reaches its midpoint. A lower IC50 goes with higher potency. As a reminder, the CC50 is the concentration giving 50% cytotoxicity. Low readings indicate greater toxicity to the cells, high ones lower toxicity to the cells.

Series [1] relates to T. cruzi epimastigotes (RA strain). In words: [3H] thymidine uptake assay, growth inhibition of T. cruzi epimastigotes. The conditions noted are these: Trypanosoma cruzi, 72 h of incubation. The series is classed as cell-based. How it is done: T. cruzi epimastigotes (RA strain) were grown in liver infusion tryptose medium (LIT) supplemented with 10% fetal bovine serum (Natocor). Cultures were routinely maintained by weekly passages at 28°C. T. cruzi trypomastigotes were routinely maintained by infecting 21-day-old male CF1 mice. T. cruzi amastigotes were obtained by infecting J774 cells with bloodstream trypomastigotes.
S. sonchifolius OE and fractions F 1A–F 5B were tested for trypanocidal activity against T. cruzi epimastigotes, at final concentrations of 10 μg/mL and 100 μg/mL, by a [^3H] thymidine uptake assay as previously described. Compounds 1, 2, and 3 were tested at final concentrations ranging from 0.01 μg/mL to 50 μg/mL. Stock solutions of the samples were prepared in ethanol : water (1 : 1). Epimastigotes in exponential growth phase were adjusted to 1.5 × 10^6 parasites/mL and seeded on 96-well plates in the presence of the different concentrations of OE, fractions, or compounds. Parasites were cultured in triplicate for 72 h. Control parasites were cultured in absence or presence of benznidazole (20 μM; Roche-Rio de Janeiro, Brazil). Percentage inhibition was calculated as 100 − {[(cpm of treated parasites)/(cpm of untreated parasites)] × 100}. The compound concentration at which the parasite growth was inhibited by 50% (inhibitory concentration 50, IC50) was determined after 72 h.

A further series relates to T. cruzi epimastigotes. In words: Recovery of epimastigotes after 24 h treatment (residual effect), Neubauer chamber counting. The series is classed as cell-based, Trypanosoma cruzi. The conditions noted are these: for reduction in the replication rate / amount of parasites after treatment: epimastigotes; for reduction in the replication rate: at 24 h after treatment; for amount of parasites after treatment: 24 h treatment. How it is done: To determine whether the parasites could recover after treatment with the pure compounds, T. cruzi epimastigotes were incubated with compounds 1–3 (0.1, 1, and 10 μg/mL) for 24 h. Parasites were then centrifuged at 3000 rpm for 10 min, resuspended in fresh medium, and incubated for 2 additional days, counting the number of parasite in a Neubauer chamber on a daily basis.

In another series the test system is T. cruzi trypomastigotes. In words: Trypanocidal effect on bloodstream trypomastigotes, counting of remaining live parasites. The series is classed as cell-based, Trypanosoma cruzi. The conditions noted are these: 24 h; for IC50: Trypanosoma cruzi. How it is done: The trypanocidal effect of compounds 1, 2, and 3 was also tested on bloodstream trypomastigotes as previously described. Briefly, mouse blood containing trypomastigotes was adjusted to a concentration of 1.5 × 10^6 parasite/mL and seeded (150 μL/well) by duplicate into a 96-well microplate, in the presence of each compound (1 to 50 μg/mL, final concentration). Plates were incubated for 24 h, and the remaining live parasites were counted in a haemocytometer.

In the next series the test system is T. cruzi amastigotes. As to the kind of experiment: Intracellular amastigotes in J774 macrophages, β-galactosidase/CPRG assay. The conditions noted are these: for selectivity index (SI): CC50 Vero cells divided by IC50 T. cruzi amastigotes; for IC50: Trypanosoma cruzi, intracellular amastigotes in J774 macrophages, 48 h after addition. Format: cell-based, Trypanosoma cruzi. How it is done: To evaluate the effect of compounds 1–3 on intracellular forms of T. cruzi, 96-well plates were seeded with J774 murine macrophages at 5 × 10^3 per well in 100 μL of culture medium and incubated for 2 h at 37°C in a 5% CO2 atmosphere. Cells were infected with transfected blood trypomastigotes expressing β-galactosidase at a parasite : cell ratio of 10 : 1. After 2 h of coculture, plates were washed twice with PBS to remove free parasites and compounds 1–3 were added at 0.1–50 μg/mL per well in 150 μL of fresh complete RPMI medium without phenol red (Gibco, Rockville, MD). Controls included infected nontreated cells (100% infection control) and uninfected cells (0% infection control). The assay was developed 48 h later by addition of chlorophenol red-β-d-galactopyranoside (100 μM CPRG) and 1% Nonidet P40. Plates were incubated for 4–6 h at 37°C. Wells with galactosidase activity turned the media from yellow to red, and this reaction was quantified at 590 nm in a microplate reader (Bio-Rad Laboratories, Hercules, CA). Percentage inhibition was calculated as 100 − {[(absorbance of treated infected cells)/(absorbance of untreated infected cells)] × 100} and the IC50 value calculated.
The selectivity index (SI) of each compound was calculated as the CC50 obtained with Vero cells divided by the IC50 obtained against T. cruzi amastigotes.

Another series is described as follows: MTT cytotoxicity assay. Format: cell-based. The conditions noted are these: African green monkey, Vero cells. The protocol:
The cytotoxic effect of compounds 1, 2, and 3 on Vero cells was evaluated by using the MTT tetrazolium salt (3-(4,5-dimethylthiazol-2-yl)-2,5-diphenyltetrazolium bromide) (Sigma) colorimetric assay. Cells (5 × 10^4 cells/well) were seeded at a final volume of 150 μL in a flat-bottom 96-well microplate and cultured at 37°C in a 5% CO2 atmosphere in the absence or presence of increasing concentrations of the compounds (1–50 μg/mL). After 24 h, MTT was added at a final concentration of 1.5 mg/mL and plates were incubated for 2 h at 37°C. The purple formazan crystals were completely dissolved by adding 150 μL of ethanol, and the absorbance was detected at 570 nm in a microplate reader. Results were calculated as the ratio between optical density in the presence and absence of the compound multiplied by 100. The 50% cytotoxic concentration (CC50) was calculated for each compound. All experiments were made in duplicate.

The mark [2] stands for this setting: 10 μg/mL for 24 h, then 2 days in fresh medium.

SMILES strings stand for the structures. Values joined by “and” are separate entries in the source; they are usually repeats but may differ in a detail not shown here. Equal values may be shown once. “Also recorded” adds a separate entry of the source.

`C=C1C(=O)O[C@@H]2/C=C(\C)CC/C=C(/C(=O)OC)[C@H](OC(C)=O)[C@@H](OC(=O)[C@]3(C)O[C@@H]3C)[C@@H]12` [uvedalin, 8β-(2′S,3′S)-epoxyangeloyloxy-9α-acetyloxy-1(10)E,4E,11(13)-germacratrien-12,6α-olide-14-oic acid methyl ester]: the IC50 in series [1] was 1.09 µM and 0.49 µg/mL; in the series with T. cruzi trypomastigotes it was 25 µM and 11.2 µg/mL; with T. cruzi amastigotes it was 3.34 µM and 1.5 µg/mL. Further, the “recovery of epimastigote replication after removal of compound” value (from here on “recovery of epimastigote replication”) with T. cruzi epimastigotes (setting [2]) is recorded as “not able to recover their replication rate; also recorded: no recuperation of the epimastigotes was observed; also recorded: not able to recover their initial replication rates”. In addition, the “reduction in the replication rate” value with T. cruzi epimastigotes (1 μg/mL) is listed as about 50%. Further, in the series with T. cruzi epimastigotes (10 μg/mL), the “amount of parasites after treatment” value is on record as “drastic reduction in the amount of parasites”. For the same molecule, in the series with T. cruzi amastigotes, the “selectivity index (SI)” value worked out at 14. Also, in the series “MTT cytotoxicity assay”, the CC50 at 24 h is 46.8 µM and 21 µg/mL.

In the case of `C=C1C(=O)O[C@@H]2/C=C(\C)CC/C=C(/C(=O)OC)[C@H](OC(C)=O)[C@@H](OC(=O)/C(C)=C\C)[C@@H]12` [polymatin B, 8β-angeloyloxi-9α-acetyloxi-1(10)E,4E,11(13)-germacratrien-12,6α-olide-14-oic acid methyl ester], the IC50 in series [1] was 4.9 µM and 2.12 µg/mL. Also, the “recovery of epimastigote replication” value in the series on T. cruzi epimastigotes (0.1 μg/mL for 24 h, then fresh medium) is “recovered their replication rates at values similar to the control parasites”. In addition, the “reduction in the replication rate” value with T. cruzi epimastigotes (10 μg/mL) was about 50%. For the same molecule, the activity against trypomastigotes entry in the series on T. cruzi trypomastigotes (1 to 50 μg/mL) is “not active”. In addition, in the series on T. cruzi amastigotes, the “selectivity index (SI)” value came out at 16.3; the IC50 was 9.02 µM and 3.9 µg/mL. Also, the CC50 at 24 h in the series “MTT cytotoxicity assay” is 147 µM and 63.7 µg/mL.

With `C=C1C(=O)O[C@H]2[C@H]1[C@H](OC(=O)[C@@]1(C)O[C@H]1C)[C@@H](OC(C)=O)/C(C(=O)OC)=C\CC[C@@]1(C)O[C@H]21` [enhydrin, 4α,5β-epoxy-8β-(2′S,3′S)-epoxyangeloyloxy-9α-acetyloxy-1(10)E,11(13)-germacradien-12,6α-olide-14-oic-acid methyl ester], the IC50 is 840 nM and 0.39 µg/mL in series [1]; 33.4 µM and 15.5 µg/mL in the series on T. cruzi trypomastigotes; 5.17 µM and 2.4 µg/mL with T. cruzi amastigotes. Moreover, the “recovery of epimastigote replication” value in the series on T. cruzi epimastigotes (setting [2]) is recorded as “not able to recover their replication rate; also recorded: no recuperation of the epimastigotes was observed; also recorded: not able to recover their initial replication rates”. For the same molecule, the “reduction in the replication rate” value with T. cruzi epimastigotes (1 μg/mL) was about 50%. Besides, in the series on T. cruzi epimastigotes (10 μg/mL), the “amount of parasites after treatment” value is listed as “drastic reduction in the amount of parasites”. For the same molecule, the “selectivity index (SI)” value with T. cruzi amastigotes stood at 9. For the same molecule, the CC50 at 24 h in the series “MTT cytotoxicity assay” was 46.5 µM and 21.6 µg/mL.
